How the values were obtained:
human = experiment: maximum tolerated dose for human calculated from animal doses; format: in vivo; conditions: calculated on the basis of a body weight of 60 kg from maximum tolerated dose of intramuscular and intravenous injection for animals
mouse = experiment: acute toxicity test, gastric gavage, mouse; conditions: within 24 h
[1] = solubility test (excess compound shaken to equilibrium, UV at 319 nm); format: physicochemical; conditions: 25±1°C, 72 h
Procedure: A series of solutions of gastrodin or hydroxypropyl-β-cyclodextrin or a mixture of gastrodin and hydroxypropyl-β-cyclodextrin were prepared in volumetric flasks according to the concentrations specified in the tables below. Excessive piceatannol-3'-o-β-d-glucopyranoside was added to the solutions prepared above, which were then shaken at 25±1°C in a thermostatic water bath continuously for 72 h until equilibrium was reached. The solutions were precisely taken out and filtered through a 0.45µm filter. The filtered solutions were diluted to prepare test solutions containing 6µg piceatannol-3'-o-β-d-glucopyranoside per milliliter. Appropriate amount of control sample was precisely weighed out, dissolved in water and diluted to prepare a control solution. The absorbance values of both types of solutions were measured at 319 nm using UV spectrophotometry, from which the solubility can be calculated. The test results of solubility can be seen in the tables below: […]

mice = experiment: acute and long-term toxicity tests in mice; format: in vivo; conditions: administrated in a range of safe dose
beagle dog = experiment: acute toxicity test, gastric gavage, beagle dog; conditions: within 24 h

## OCc1ccc(O[C@@H]2O[C@H](CO)[C@@H](O)[C@H](O)[C@H]2O)cc1 [Gastrodin, 4-hydroxymethylphenyl-β-D-glucopyranoside hemihydrate]
human
  maximum tolerated dose for human: 33.249 g

## OC[C@H]1O[C@@H](Oc2cc(/C=C/c3cc(O)cc(O)c3)ccc2O)[C@H](O)[C@@H](O)[C@@H]1O [piceatannol-3'-o-β-d-glucopyranoside]
mouse
  single maximum dosage given by gastric gavage: 13.33 g/kg.bw
[1]; Gastrodin 45 % + Hydroxypropyl-β-cyclodextrin 3 %
  Solubility of piceatannol-3'-o-β-d-glucopyranoside: 186.789 mg/mL
[1]; Gastrodin 50 % + Hydroxypropyl-β-cyclodextrin 3 %
  Solubility of piceatannol-3'-o-β-d-glucopyranoside: 188.029 mg/mL
[1]; Hydroxypropyl-β-cyclodextrin 45 %
  Solubility of piceatannol-3'-o-β-d-glucopyranoside: 180.509 mg/mL
[1]; Hydroxypropyl-β-cyclodextrin 50 %
  Solubility of piceatannol-3'-o-β-d-glucopyranoside: 183.10 mg/mL
mice
  toxic effect: no toxic effect observed
Genotoxicity test
  chromosome aberration or mutagenesis: no chromosome aberration or mutagenesis observed
Beagle dog
  single maximum dosage given by gastric gavage: 5 g/kg.bw

From patent EP2862575B1, “APPLICATION OF PICEATANNOL-3'-O-B-D-GLUCOPYRANOSIDE IN PREPARATION OF MEDICAMENTS FOR IMPROVING MICROCIRCULATION BLOCK” (KPC Pharmaceuticals, Inc., priority 2012, dated 2013)
